According to patent publication US20230248036A1, “FLAVOUR ADDITIVES” (MARS, INCORPORATED, priority 2012, published 2023):

Columns and labels:
feline umami receptor = experiment: Ligand binding of the feline umami receptor; details: natural ligands of the human T1R1/T1R3 receptor
Text: As mentioned above, in addition to in silico modelling of the feline umami receptor, sequence alignments of the human, cat and dog receptors have been performed. […] Therefore, due to these significant differences, it would not be expected by the skilled person that compounds that are known to bind to the human receptor would affect the umami receptor of other animals as described herein.

[1] = test system: T1R1/T1R3 receptor (umami receptor); experiment: In vitro screening for binding and activation of the umami receptor; format: biochemical; details: in vitro assays using a non-human umami receptor (with in silico modelling); screening in the presence of 0.2 mM IMP
Method: In vitro screening was carried out in order to establish which first amino acids bind and activate the umami receptor.
In vitro screening was carried out in order to establish which second amino acids bind and activate the umami receptor.

## N[C@@H](CCC(=O)O)C(=O)O [glutamate]
Feline umami receptor
  Binding to the feline umami receptor: does not bind

## N[C@@H](Cc1c[nH]cn1)C(=O)O [histidine]
[1]
  Ability to bind to and activate the umami receptor: able to bind to and activate

## C[C@@H](O)[C@H](N)C(=O)O [threonine]
[1]
  Ability to bind to and activate the umami receptor: do not activate

## NCC(=O)O [glycine]
[1]
  Ability to bind to and activate the umami receptor: able to bind to and activate
